Laboratory results reported in patent publication US11124479B2, “Oligopyrroles as antagonists of islet amyloid polypeptide oligomerization” (New York University, priority 2017, dated 2021).

Legend:
[1] = biological target: T1, islet amyloid polypeptide (IAPP) (Homo sapiens, UniProt P10997); test: ThT-based kinetic assay of IAPP fibrillation; type: biochemical; conditions: for relative t50 of IAPP fibrillation versus control reaction: 15 μM IAPP, equimolar ratio
T1 construct: IAPP is a 37 residue neuropancreatic hormone peptide; purchased Anaspec (Fremont, Calif.)
T1 sequence (P10997 34-70 limits assumed): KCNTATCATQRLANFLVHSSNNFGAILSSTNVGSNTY
Description: The aggregation kinetics of IAPP was probed using an exogenous reporter, Thioflavin T (ThT), which quantifies the amount of fibers in solution without perturbing the aggregation kinetics of IAPP (see Wolfe, L. S.; Calabrese, M. F.; Nath, A.; Blaho, D. V.; Miranker, A. D.; Xiong, Y. Proc. Natl. Acad. Sci. U.S.A. 2010, 107, 16863-16868; Levine, H. Protein Sci. 1993, 2, 404-410). […] The kinetics of IAPP fibrillation was quantified using the reaction midpoint, t50, which is the time required to reach 50% fluorescence in the fibrillation reaction (FIG. 8).
Kinetic assays were conducted on a FlexStation 3 Multi-Mode Microplate reader from Molecular Devices (Sunnyvale, Calif.). Experiments were conducted in triplicate in a 96-well plate with a final volume of 200 μL per well. Every measurement was an average of 50 readings. The aggregation of IAPP was initiated by its addition from a stock solution (1 mM in DMSO) to phosphate buffer. The stoichiometry ratio for ThT to IAPP was 0.5:1. Peptide aggregation was monitored by ThT fluorescence (λex=445 nm and λem=485 nm). The blank sample contained all the components of the peptide samples except peptide. The sample data were processed by subtracting the blank and renormalizing the fluorescence intensity by setting the maximum value to 1.
Kinetic assays in the presence of the compounds of the invention were conducted under the same conditions. Small molecules were added from a stock solution (1 mM or 10 mM in DMSO) to keep the final concentration of DMSO less than 1.0% (v/v). Small molecules were added to the wells with ThT and buffer and mixed gently with a pipette before adding IAPP. To keep the conditions identical, an equal amount of DMSO was added to the wells with IAPP only reactions. For the aggregation kinetics of Aβ42, the peptide was dissolved in 1N NaOH (0.5-1 mM) and vortexed for 2 min. to ensure the complete solubility. The aggregation of 3 μM Aβ42 was initiated by addition of peptide from a stock solution (in 1 N NaOH, 0.5-1 mM) to phosphate buffer.
Kinetic profiles were processed using Origin (version 9.1). Kinetic curves were fit using the built-in sigmoidal fit. Each run was fit independently to extract the t50 (time required to reach 50% of the maximum fluorescence intensity). Error bars represent standard deviations from the mean of at least three independent experiments.
The membrane model system selected for the amyloid assays is a mixture of DOPG (dioleoylphosphatidylglycerol) and DOPC (dioleoylphosphatidylcholine) at 3:7 molar ratio, which mimics physiological conditions (Ono, K.; Condron, M. M.; Teplow, D. B. Proc. Natl. Acad. Sci. U.S.A. 2009, 106, 14745-14750). The lipid catalyzed aggregation of IAPP was initiated by adding freshly prepared 15 μM IAPP (1 mM stock solution in DMSO) to the phosphate buffer (50 mM NaPi, 150 mM KCl, pH 7.4) containing 15 μM ThT and 750 μM of unilamellar liposomes (LUVs, DOPG:DOPC, 3:7, d=100 nm).

[2] = biological target: T1, islet amyloid polypeptide (IAPP); test: Circular dichroism (CD) spectroscopy of IAPP conformation; conditions: for IAPP conformation by CD: 15 μM IAPP, equimolar ratio
Experimental: A freshly prepared stock solution of IAPP (500 μM in water) was diluted to 15 μM in phosphate buffer for CD measurements. The spectra of IAPP were recorded at 0.5 nm intervals from 190 to 260 nm with an averaging time of 10 sec. and an average of three repeats on an Aviv Stopped Flow CD Spectropolarimeter (Model 202SF). Spectra were recorded using the identical method as described above. ADH-101 was added to the solution of IAPP at an equimolar ratio. […]

## CCOC(=O)c1cc(NC(=O)c2cc(NC(=O)c3cc([N+](=O)[O-])cn3CC(C)C)cn2CC(C)C)cn1CCC(=O)O [ADH-101]
[1]
  antagonist of oligomerization, fibrillation, and/or aggregation of IAPP (in words): effective antagonist
[1]; de novo (no lipid membrane), fivefold excess
  inhibition of IAPP aggregation: completely abolishes
[1]; de novo / lipid free
  relative t50 of IAPP fibrillation versus control reaction: 4.4 fold
[1]; identical conditions without IAPP
  change in the intensity of ThT: no significant change
[1]; lipid catalyzed (750 μM LUVs, DOPG:DOPC 3:7)
  relative t50 of IAPP fibrillation versus control reaction: 2.7 fold
[1]; lipid catalyzed conditions
  fold better inhibitor of IAPP fibrillation than Acid Fuchsin: 3.5 fold
  fold better inhibitor of IAPP fibrillation than Curcumin: 2.2 fold
  fold better inhibitor of IAPP fibrillation than EGCG: 3.3 fold
[1]; lipid catalyzed, stoichiometric ratio 10:1 (ADH-101:IAPP)
  inhibition of IAPP fibrillation: completely inhibits
[2]; phosphate buffer, after 8 hours
  IAPP conformation by CD: no β-sheet conformation was observed
[2]; FIG. 3B
  conformation induced in IAPP: induces an α-helical conformation
[2]; incubated with IAPP at equimolar ratio
  induced CD signal around 340 nm: positive induced CD signal
[2]; lipid membrane (600 μM DOPG:DOPC 3:7), after 1 hour
  IAPP conformation by CD: stays in an α-helical state
